Data reported in publication PMC9181982, “Biphenyl Ether Analogs Containing Pomalidomide as Small-Molecule Inhibitors of the Programmed Cell Death-1/Programmed Cell Death-Ligand 1 Interaction” (Molecules, 2022).

What was measured:
PD-1/PD-L1 complex = molecular target: T1, PD-1/PD-L1 complex (Homo sapiens, UniProt Q9NZQ7); assay: HTRF (homogeneous time-resolved fluorescence) PD-1/PD-L1 binding assay (Cis-Bio); details: 5 nM hPD-L1, 50 nM hPD-1
T1 construct: purchased Cis-Bio
Description: To validate the activity toward PD-L1 of our compounds, we carried out an HTRF (homogeneous time-resolved fluorescence) experiment at two concentrations of the ligand (5 µM and 0.5 µM) (Table 1).
HTRF was carried out using a certified Cis-Bio assay according to the manufacturer’s guidelines. The experiments were carried out at 5 nM of h-L1 and 50 nM of hPD-1 in the final formulation at the 20 µL final volume in the well. To determine the half maximal inhibitory concentrations (IC50) of the tested compounds, the measurements were carried out on two individual dilution series unless stated otherwise. After mixing all the components according to the Cis-Bio protocol, the plate was left for 2 h incubation at room temperature followed by the TR-FRET measurement on a Tecan Spark 20M. […] The collected data was background-subtracted from the negative control, normalized on the positive control, averaged, and fitted with the normalized Hill’s equation to determine the IC50 value using Mathematica 12 (Princeton, NJ, USA).

PD-L1 protein = molecular target: T2, PD-L1 protein (Homo sapiens, UniProt Q9NZQ7); assay: 1H NMR binding analysis, PD-L1 protein titrated with ligand; details: for Binding to PD-L1 by 1H NMR titration: PBS pH 7.4, 300 K, protein–ligand ratios up to 1:10
T2 construct: PD-L1 gene (amino acids 18–239); made in house; host or cells: E. coli BL21
T2 sequence (Q9NZQ7 18-239): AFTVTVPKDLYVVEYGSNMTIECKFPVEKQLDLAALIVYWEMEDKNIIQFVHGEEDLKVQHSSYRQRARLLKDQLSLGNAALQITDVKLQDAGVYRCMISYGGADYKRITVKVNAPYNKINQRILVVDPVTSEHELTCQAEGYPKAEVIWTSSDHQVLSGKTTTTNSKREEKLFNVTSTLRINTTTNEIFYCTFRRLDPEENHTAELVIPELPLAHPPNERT
Description: Apart from the HTRF assay, we performed the NMR [33, 34] binding analysis by recording the ^1H spectrum of the PD-L1 protein titrated with compound 4 (Figure 1).
The E. coli strain BL21 was transformed with a pET-21b plasmid carrying the PD-L1 gene (amino acids 18–239). The bacteria were cultured in LB at 37 °C until OD600nm of 0, 6 when the recombinant protein production was induced with 1 mM IPTG. The protein production continued overnight. The inclusion bodies were collected by centrifugation, washed twice with 50 mM Tris HCl, pH 8.0, containing 200 mM NaCl, 10 mM EDTA, 10 mM 2-mercaptoethanol, and 0.5% Triton X-100, followed by a single wash with the same buffer but with no Triton X-100. The washed inclusion bodies were resuspended overnight in 50 mM Tris HCl, pH 8.0, 6 M GuHCl, 200 mM NaCl, and 10 mM 2-mercaptoethanol and clarified with centrifugation. Refolding of PD-L1 was performed by dropwise dilution into 0.1 M Tris HCl, pH 8.0, containing 1 M L-arginine hydrochloride, 0.25 mM oxidized glutathione, and 0.25 mM reduced glutathione. The refolded protein was dialyzed three times against 10 mM Tris HCl, pH 8.0, containing 20 mM NaCl and purified by size exclusion chromatography using Superdex 75 and a dialysis buffer. The quality of the refolded protein was evaluated by SDS-PAGE and NMR.
NMR spectra were recorded in PBS, pH 7.4, containing 10% (v/v) of D2O added to the samples to provide the lock signal. Water suppression was carried out using the WATERGATE sequence. All the spectra were recorded at 300 K using a Bruker Avance 600 MHz spectrometer with the Cryo-Platform. The NMR spectrum was recorded at three different ligand/protein ratios from 0 to 10. The samples were prepared by adding small amounts of a 50 mM ligand stock solution in DMSO to the protein solution (0.20 mL) of the PD-L1 fragment at a concentration of 0.14 mM. The acquisition parameters for each spectrum were as follows: size of FID32768, number of scans: 32. The spectra were visualized using TopSpin 4.0.2. (Bruker, Billerica, MA, USA)

[1] = tested on: PD-1/PD-L1 blockade, Jurkat effector cells / CHO/TCRAct/PD-L1 cells; assay: Immune checkpoint blockade (ICB) assay (Promega): Jurkat ECs co-cultured with CHO/TCRAct/PD-L1 cells, NFAT luciferase readout; format: cell-based, human
Description: In order to explore the bioactivity of the synthesized compounds, a well-recognized immune checkpoint blockade (ICB) assay was performed. In the assay, artificial T cells, the Jurkat effector cells (Jurkat ECs), i.e., the Jurkat T cells overexpressing PD-1 and luciferase-coding gene under the control of the TCR-inducible NFAT response element, are contacted with artificial antigen-presenting CHO/TCRAct/PD-L1 cells, as illustrated in [31]. The latter is the CHO cells equipped with the TCR activator molecule, which delivers activation of Jurkat ECs, and also the PD-L1 protein, which provides a negative signal towards the activation of Jurkat ECs. Upon the blockade of the PD-1/PD-L1 interaction, activation of Jurkat ECs is increased, as we have shown before for several classes of therapeutic antibodies and small molecules.
The human PD-L1-expressing CHO-K1 cells overexpressing TCR activator (CHO/TCRAct/PD-L1) cells and Jurkat ECs T cells overexpressing PD-1 and carrying a luciferase reporter gene under the control of the Nuclear Factor of Activated T cells Response Element (NFAT-RE) were obtained from Promega and cultured in an RPMI-1640 medium (Biowest, Nuaillé, France) supplemented with 10% fetal bovine serum (FBS, Biowest, Nuaillé, France) and […] L-glutamine (Biowest, Nuaillé, France). G418 (250 µg/mL, InvivoGen, San Diego, CA, USA) and Hygromycin B Gold (50 µg/mL, InvivoGen, San Diego, CA, USA) were also added to the culture medium as selection antibiotics. CAKI 2, LNCap, PC-3, and MDA-MB-231 cells were purchased from the European Collection of Authenticated Cell Cultures (ECACC) and cultured according to the provided protocol.
For the analysis of biological activity of the analyzed compounds, an immune checkpoint blockade (ICB) assay was performed. For this, the culture of Jurkat effector cells (Jurkat-ECs) and […] was carried out. The assay was performed according to the protocol described in our previous works. All the experiments were performed three times as independent experiments.
Figure 2 Bioactivity of the indicated compounds. (A,B) The activity was monitored with a cell-based immune checkpoint blockade (ICB) assay. Jurkat ECs were contacted with pre-seeded CHO/TCRAct/PD-L1 cells in the presence of the indicated concentrations of the compounds (A) or durvalumab (B) as a positive control. The cells were co-cultured for 6 h and the luminescence signal was measured following the addition of the Bio-Glo substrate. The graphs show fold induction calculated versus either DMSO-treated (for small molecules) or untreated (for durvalumab) control (ctrl) cells. The results are mean ± SD from three independent experiments. […] (C) Analysis of the expression of PD-L1 in four human cancer cell lines compared to PD-L1-overexpressing CHO/TCRAct/PD-L1 cells. (D) Analysis of the expression of PD-L1 in MDA-MB-231 cells treated with either 4 or 5 compounds for 6 or 24 h.

T1 sequence (Q9NZQ7 19-238 limits assumed, one chain of several): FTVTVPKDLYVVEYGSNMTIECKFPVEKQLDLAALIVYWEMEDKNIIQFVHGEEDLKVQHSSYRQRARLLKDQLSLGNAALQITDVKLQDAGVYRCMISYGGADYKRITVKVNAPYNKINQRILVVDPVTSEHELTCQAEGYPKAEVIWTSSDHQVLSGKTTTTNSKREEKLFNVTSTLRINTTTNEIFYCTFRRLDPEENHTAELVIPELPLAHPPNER

| inhibition at 0.5 µM (PD-1/PD-L1 complex; 0.5 µM ligand, read-out: HTRF: Percentage of the Dissociated PD-1/PD-L1 Complex, 0.5 µM Ligand Conc.) [%] | inhibition at 5 µM (PD-1/PD-L1 complex; 5 µM ligand, read-out: HTRF: Percentage of the Dissociated PD-1/PD-L1 Complex, 5 µM Ligand Conc.) [%] | Protein precipitation during NMR titration (PD-L1 protein; 1H NMR titration, compound 6 at protein–ligand ratio 1:10) | HTRF: Percentage of the Dissociated PD-1/PD-L1 Complex, 0.5 µM Ligand Conc. (PD-1/PD-L1 complex; 0.5 µM ligand) [%] | HTRF: Percentage of the Dissociated PD-1/PD-L1 Complex, 5 µM Ligand Conc. (PD-1/PD-L1 complex; 5 µM ligand) [%] | Structure (SMILES) | Binding to PD-L1 by 1H NMR titration (PD-L1 protein) | Promega Assay (active / not active) ([1]; cell-based PD-1/PD-L1 blockade bioassay) | Activation of Jurkat ECs in the ICB assay ([1]; 6 h co-culture, fold induction vs control) |
| --- | --- | --- | --- | --- | --- | --- | --- | --- |
| 13.8 | 25.9 | massive protein precipitation |  |  | Cc1c(COc2cc(OCc3cccc(C#N)c3)c(C(NCCCNc3cccc4c3C(=O)N(C3CCC(=O)NC3=O)C4=O)c3nnnn3C(C)(C)C)cc2Cl)cccc1-c1ccc2c(c1)OCCO2 (stereo not drawn) [compound 6, 3-((2-((1-(tert-butyl)-1H-tetrazol-5-yl)((3-((2-(2,6-dioxopiperidin-3-yl)-1,3-dioxoisoindolin-4-yl)amino)propyl)amino)methyl)-4-chloro-5-((3-(2,3-dihydrobenzo[b][1,4]dioxin-6-yl)-2-methylbenzyl)oxy)phenoxy)methyl)benzonitrile] | does not present changes in the PD-L1 NMR protein spectra | Not active |  |
|  |  |  | 11.4 | 20.1 | Nc1cccc2c1C(=O)N(C1CCC(=O)NC1=O)C2=O (stereo not drawn) [pomalidomide] | lack of interaction |  | did not increase the activation of Jurkat ECs |
